{"source": "paper PMC4762374", "about": "(MedChemComm, 2015)", "key": {"M.tb (H37Rv)": {"test_system": "M.tb (H37Rv)", "assay": "Microplate alamar blue assay", "assay_type": "cell-based, Mycobacterium tuberculosis", "settings": "against M.tb"}, "CTX-M-14 (Purified)": {"molecular_target": "CTX-M-14 (Purified) (Escherichia coli, UniProt Q9L5C7)", "assay": "In vitro β-lactamase inhibition screening, CTX-M-14", "assay_type": "biochemical"}, "NDM-1 (Purified)": {"molecular_target": "NDM-1 (Purified) (Klebsiella pneumoniae, UniProt C7C422)", "sequence (C7C422 29-270 limits assumed)": "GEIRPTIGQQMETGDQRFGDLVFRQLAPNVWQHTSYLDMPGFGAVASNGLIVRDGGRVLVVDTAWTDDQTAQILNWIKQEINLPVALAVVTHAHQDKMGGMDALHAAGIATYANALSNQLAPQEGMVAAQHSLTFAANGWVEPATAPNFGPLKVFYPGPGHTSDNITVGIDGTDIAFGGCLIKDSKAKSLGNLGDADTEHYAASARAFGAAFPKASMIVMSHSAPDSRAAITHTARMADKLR", "assay": "In vitro β-lactamase inhibition screening, NDM-1", "assay_type": "biochemical", "settings": "for inhibition of NDM-1 (in words): class B enzymes, effect of N-thiolation"}, "M. vaccae": {"test_system": "M. vaccae", "assay": "Kirby-Bauer antibacterial agar diffusion assay", "assay_type": "cell-based"}}}
{"smiles": "C[C@@H](O)[C@H]1C(=O)N[C@@H]1N(OCc1ccccc1)C(=O)c1ccccc1", "note": "[Compound 12]", "values": [{"measurement": "anti-TB activity (in words)", "setting": "M.tb (H37Rv)", "value": "inactive"}, {"measurement": "β-lactamase inhibitory activity (in words)", "setting": "CTX-M-14 (Purified); after silyl removal, compared with CTX-M-14-directed compound 13", "value": "inactive"}]}
{"smiles": "C=CCON(C(=O)c1ccc([N+](=O)[O-])cc1)C1CC(=O)N1SC", "note": "(centres unmarked) [Compound 8c]", "values": [{"measurement": "inhibition of NDM-1 (in words)", "setting": "NDM-1 (Purified)", "value": "potent inhibitor"}]}
{"smiles": "CSN1C(=O)[C@@H](NC(=O)COc2ccccc2)[C@@H]1N(OCc1ccccc1)C(=O)c1cc([N+](=O)[O-])cc(C(F)(F)F)c1", "note": "(racemic) [Compound 24b]", "values": [{"measurement": "inhibition of NDM-1 (in words)", "setting": "NDM-1 (Purified)", "value": "potent inhibitor"}]}
{"smiles": "CSN1C(=O)[C@H]([C@@H](C)O[Si](C)(C)C(C)(C)C)[C@H]1N(OCc1ccccc1)C(=O)c1ccccc1", "note": "[Compound 13]", "values": [{"measurement": "anti-TB activity (in words)", "setting": "M.tb (H37Rv)", "value": "good activity"}, {"measurement": "activity in the agar studies (in words)", "setting": "M. vaccae", "value": "not very active"}]}
{"smiles": "C=CCON(C(=O)c1ccc([N+](=O)[O-])cc1)C1CC(=O)N1", "note": "(centres unmarked) [Compound 7c]", "values": [{"measurement": "inhibition of NDM-1 (in words)", "setting": "NDM-1 (Purified)", "value": "inactive"}]}
{"smiles": "CSN1C(=O)[C@@H](NC(=O)COc2ccccc2)[C@@H]1N(OCc1ccccc1)C(=O)c1ccccc1", "note": "(racemic) [Compound 24a]", "values": [{"measurement": "activity in the agar studies (in words)", "setting": "M. vaccae", "value": "not very active"}]}
{"smiles": "C[C@@H](O[Si](C)(C)C(C)(C)C)[C@H]1C(=O)N[C@@H]1N(OCc1ccccc1)C(=O)c1ccccc1", "note": "[Compound 11]", "values": [{"measurement": "anti-TB activity (in words)", "setting": "M.tb (H37Rv)", "value": "did not exhibit noticeable anti-TB activity"}]}
{"smiles": "O=C(Cc1ccccc1)N[C@@H]1C(=O)N[C@H]1N(OCc1ccccc1)C(=O)c1ccccc1", "note": "[Compound 18]", "values": [{"measurement": "Ki", "setting": "CTX-M-14 (Purified)", "value": 50, "unit": "nM"}, {"measurement": "Ki", "setting": "NDM-1 (Purified)", "value": "> 160000", "unit": "nM"}]}
{"smiles": "CCOc1ccc(C(=O)N(OCc2ccccc2)C2CC(=O)N2)cc1", "note": "(centres unmarked) [Compound 7b]", "values": [{"measurement": "inhibition of NDM-1 (in words)", "setting": "NDM-1 (Purified)", "value": "inactive"}]}
{"smiles": "CC(C)(C)[Si](C)(C)N1C(=O)CC1N(OCc1ccccc1)C(=O)c1ccccc1", "note": "(centres unmarked) [Compound 6]", "values": [{"measurement": "activity in the agar studies (in words)", "setting": "M. vaccae", "value": "not very active"}]}
{"smiles": "CCOc1ccc(C(=O)N(OCc2ccccc2)C2CC(=O)N2SC)cc1", "note": "(centres unmarked) [Compound 8b]", "values": [{"measurement": "inhibition of NDM-1 (in words)", "setting": "NDM-1 (Purified)", "value": "potent inhibitor"}]}
